# Source: patent publication US20070117770A1, “Human ribosomal DNA (rDNA) and ribosomal RNA (rRNA) nucleic acids and uses thereof” (Cylene Pharmaceuticals, Inc., priority 2005, published 2007)
# Key:
# Experiment in all cases: Protein kinase inhibition assay
# Format in all cases: biochemical
# [1] = biological target: PAK4(h) (Homo sapiens, UniProt O96013); conditions: read-out: percent residual activity of PAK4(h)
# Description: (§1) Certain compounds were tested for activity in protein kinase inhibition assays. All substrates were dissolved and diluted to working stocks in de-ionized water, apart from histone H1 (10× working stock in 20 mM MOPS pH 7.0), PDKtide (10× working stock in 50 mM Tris pH 7.0) ATF2 (which is typically stored at a 20× working stock in 50 mM Tris pH 7.5, 150 mM NaCl, 0.1 mM EGTA, 0.03% Brij-35, 50% glycerol, 1 mM benzamidine, 0.2 mM PMSF and 0.1% R-mercaptoethanol), KKLNRTLSFAEPG (SEQ ID NO:203) and RRRLSFAEPG (SEQ ID NO:204) (50 mM HEPES pH 7.4) and GGEEEEYFELVKKKK (SEQ ID NO:205) (20 mM MOPS pH 7.0). All kinases were pre-diluted to a 10× working concentration prior to addition into the assay. The composition of the dilution buffer for each kinase is detailed below.
# (§2) In a final reaction volume of 25 μl, PAK4 (h) (5-10 mU) is incubated with 8 mM MOPS pH 7.0, 0.2 mM EDTA, 0.8 mg/ml myelin basic protein, 10 mM MgAcetate and [gamma-33P-ATP] (specific activity approx. 500 cpm/pmol, concentration as required). The reaction is initiated by the addition of the MgATP mix. After incubation for 40 minutes at room temperature, the reaction is stopped by the addition of 5 μl of a 3% phosphoric acid solution. 10 μl of the reaction is then spotted onto a P30 filtermat and washed three times for 5 minutes in 75 mM phosphoric acid and once in methanol prior to drying and scintillation counting.
# [2] = biological target: PKCγ(h) (Homo sapiens, UniProt P05129); conditions: read-out: percent residual activity of PKCγ(h)
# Description: as §1
# In a final reaction volume of 25 μl, PKCγ (h) (5-10 mU) is incubated with 20 mM HEPES pH 7.4, 0.03% Triton X-100, […], 0.1 mg/ml phosphatidylserine, 10 μg/ml diacylglycerol, 0.1 mg/ml histone H1, 10 mM MgAcetate and [gamma-33P-ATP] (specific activity approx. 500 cpm/pmol, concentration as required). The reaction is initiated by the addition of the MgATP mix. After incubation for 40 minutes at room temperature, the reaction is stopped by the addition of 5 μl of a 3% phosphoric acid solution. […]
# [3] = biological target: cKit(h) (Homo sapiens, UniProt P10721); conditions: read-out: percent residual activity of cKit(h)
# Sequence of cKit(h) (P10721 26-976): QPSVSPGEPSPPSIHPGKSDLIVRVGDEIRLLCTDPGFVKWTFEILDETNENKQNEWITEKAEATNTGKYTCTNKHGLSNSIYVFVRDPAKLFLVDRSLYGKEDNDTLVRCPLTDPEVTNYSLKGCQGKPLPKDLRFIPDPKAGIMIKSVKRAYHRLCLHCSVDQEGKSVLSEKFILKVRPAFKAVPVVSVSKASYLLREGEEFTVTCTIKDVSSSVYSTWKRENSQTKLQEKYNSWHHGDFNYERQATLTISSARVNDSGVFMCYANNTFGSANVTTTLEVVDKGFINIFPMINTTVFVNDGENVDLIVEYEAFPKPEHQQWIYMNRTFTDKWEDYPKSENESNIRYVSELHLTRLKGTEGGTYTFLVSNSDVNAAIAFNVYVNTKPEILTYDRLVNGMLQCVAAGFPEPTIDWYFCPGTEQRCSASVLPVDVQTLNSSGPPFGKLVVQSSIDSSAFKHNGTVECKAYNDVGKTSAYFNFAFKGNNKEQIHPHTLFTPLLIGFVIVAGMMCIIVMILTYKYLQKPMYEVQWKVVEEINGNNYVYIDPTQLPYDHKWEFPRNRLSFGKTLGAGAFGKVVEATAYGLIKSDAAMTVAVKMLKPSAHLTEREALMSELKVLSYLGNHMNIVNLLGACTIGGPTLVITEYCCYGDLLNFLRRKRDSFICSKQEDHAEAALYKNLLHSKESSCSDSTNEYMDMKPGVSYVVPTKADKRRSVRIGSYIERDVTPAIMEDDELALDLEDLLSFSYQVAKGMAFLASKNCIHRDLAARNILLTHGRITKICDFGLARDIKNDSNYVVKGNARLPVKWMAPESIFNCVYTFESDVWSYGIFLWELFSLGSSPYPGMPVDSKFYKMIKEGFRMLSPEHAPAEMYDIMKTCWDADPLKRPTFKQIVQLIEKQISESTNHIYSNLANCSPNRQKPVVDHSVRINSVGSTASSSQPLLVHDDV
# Description: as §1
# as §2, with “cKit” for “PAK4”, “10 mM MnCl2, 0.1” for “0.8”, “poly(Glu, Tyr) 4:1,” for “myelin basic protein,”, “Filtermat A” for “P30 filtermat”
# [4] = biological target: JAK2(h) (Homo sapiens, UniProt O60674); conditions: read-out: percent residual activity of JAK2(h)
# Sequence of JAK2(h) (O60674 whole entry): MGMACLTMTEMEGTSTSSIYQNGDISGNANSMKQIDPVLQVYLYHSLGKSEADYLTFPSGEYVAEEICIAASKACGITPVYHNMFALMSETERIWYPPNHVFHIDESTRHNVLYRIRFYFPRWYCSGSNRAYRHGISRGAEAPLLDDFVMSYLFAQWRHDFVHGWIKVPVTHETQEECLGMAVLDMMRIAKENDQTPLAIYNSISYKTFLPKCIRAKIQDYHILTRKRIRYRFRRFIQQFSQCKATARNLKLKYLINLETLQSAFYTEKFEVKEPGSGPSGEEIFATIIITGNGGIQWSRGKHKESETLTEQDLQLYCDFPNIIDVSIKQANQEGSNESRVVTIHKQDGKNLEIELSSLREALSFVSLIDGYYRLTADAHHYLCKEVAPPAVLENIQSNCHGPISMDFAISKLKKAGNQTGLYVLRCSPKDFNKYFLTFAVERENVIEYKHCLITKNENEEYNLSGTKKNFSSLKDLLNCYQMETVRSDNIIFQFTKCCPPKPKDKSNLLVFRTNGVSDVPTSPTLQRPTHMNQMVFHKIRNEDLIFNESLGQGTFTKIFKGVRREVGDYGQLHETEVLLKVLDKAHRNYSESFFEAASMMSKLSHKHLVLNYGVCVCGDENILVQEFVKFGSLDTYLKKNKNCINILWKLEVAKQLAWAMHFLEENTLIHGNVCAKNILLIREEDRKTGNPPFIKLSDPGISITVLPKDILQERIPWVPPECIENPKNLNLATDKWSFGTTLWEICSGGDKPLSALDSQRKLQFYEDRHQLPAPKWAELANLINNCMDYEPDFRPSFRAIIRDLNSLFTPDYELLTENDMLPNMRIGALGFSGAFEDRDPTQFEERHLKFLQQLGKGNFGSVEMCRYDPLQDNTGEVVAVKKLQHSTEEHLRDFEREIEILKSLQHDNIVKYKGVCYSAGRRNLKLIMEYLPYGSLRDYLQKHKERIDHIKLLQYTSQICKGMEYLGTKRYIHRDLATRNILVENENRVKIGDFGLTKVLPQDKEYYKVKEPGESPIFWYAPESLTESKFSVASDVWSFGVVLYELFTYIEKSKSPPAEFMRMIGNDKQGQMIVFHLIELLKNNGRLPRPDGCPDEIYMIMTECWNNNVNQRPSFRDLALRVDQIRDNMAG
# Description: as §1
# as §2, with “JAK2” for “PAK4”, “100 μM […] (SEQ ID NO:217),” for “0.8 mg/ml myelin basic protein,”
# [5] = biological target: TrkA(h) (Homo sapiens, UniProt P04629); conditions: read-out: percent residual activity of TrkA(h)
# Sequence of TrkA(h) (P04629 33-796): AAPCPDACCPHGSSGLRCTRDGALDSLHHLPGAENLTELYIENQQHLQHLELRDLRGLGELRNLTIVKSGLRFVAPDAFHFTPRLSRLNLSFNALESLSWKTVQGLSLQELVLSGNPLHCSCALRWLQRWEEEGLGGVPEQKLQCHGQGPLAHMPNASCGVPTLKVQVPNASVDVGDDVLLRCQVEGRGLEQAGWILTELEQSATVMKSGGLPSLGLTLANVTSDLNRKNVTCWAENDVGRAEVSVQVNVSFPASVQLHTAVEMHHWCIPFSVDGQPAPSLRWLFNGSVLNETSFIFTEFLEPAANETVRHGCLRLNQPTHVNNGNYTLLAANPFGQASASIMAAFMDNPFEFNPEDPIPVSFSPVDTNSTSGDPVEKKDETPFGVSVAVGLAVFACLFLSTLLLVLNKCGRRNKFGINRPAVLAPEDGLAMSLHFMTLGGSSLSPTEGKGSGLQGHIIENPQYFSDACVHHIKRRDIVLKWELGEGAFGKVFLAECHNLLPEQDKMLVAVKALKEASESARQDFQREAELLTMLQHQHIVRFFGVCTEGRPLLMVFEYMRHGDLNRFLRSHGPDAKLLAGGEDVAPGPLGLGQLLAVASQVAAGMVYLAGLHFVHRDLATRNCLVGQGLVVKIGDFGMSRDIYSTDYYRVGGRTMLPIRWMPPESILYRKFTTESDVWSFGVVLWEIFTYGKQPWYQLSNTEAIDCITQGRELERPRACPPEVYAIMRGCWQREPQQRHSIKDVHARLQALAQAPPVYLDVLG
# Description: as §1
# as §2, with “TrkA” for “PAK4”, “250 μM KKKSPGEYVNIEFG (SEQ ID NO:207),” for “0.8 mg/ml myelin basic protein,”
# [6] = biological target: Pyk2(h) (Homo sapiens, UniProt Q14289); conditions: read-out: percent residual activity of Pyk2(h)
# Sequence of Pyk2(h) (Q14289 whole entry): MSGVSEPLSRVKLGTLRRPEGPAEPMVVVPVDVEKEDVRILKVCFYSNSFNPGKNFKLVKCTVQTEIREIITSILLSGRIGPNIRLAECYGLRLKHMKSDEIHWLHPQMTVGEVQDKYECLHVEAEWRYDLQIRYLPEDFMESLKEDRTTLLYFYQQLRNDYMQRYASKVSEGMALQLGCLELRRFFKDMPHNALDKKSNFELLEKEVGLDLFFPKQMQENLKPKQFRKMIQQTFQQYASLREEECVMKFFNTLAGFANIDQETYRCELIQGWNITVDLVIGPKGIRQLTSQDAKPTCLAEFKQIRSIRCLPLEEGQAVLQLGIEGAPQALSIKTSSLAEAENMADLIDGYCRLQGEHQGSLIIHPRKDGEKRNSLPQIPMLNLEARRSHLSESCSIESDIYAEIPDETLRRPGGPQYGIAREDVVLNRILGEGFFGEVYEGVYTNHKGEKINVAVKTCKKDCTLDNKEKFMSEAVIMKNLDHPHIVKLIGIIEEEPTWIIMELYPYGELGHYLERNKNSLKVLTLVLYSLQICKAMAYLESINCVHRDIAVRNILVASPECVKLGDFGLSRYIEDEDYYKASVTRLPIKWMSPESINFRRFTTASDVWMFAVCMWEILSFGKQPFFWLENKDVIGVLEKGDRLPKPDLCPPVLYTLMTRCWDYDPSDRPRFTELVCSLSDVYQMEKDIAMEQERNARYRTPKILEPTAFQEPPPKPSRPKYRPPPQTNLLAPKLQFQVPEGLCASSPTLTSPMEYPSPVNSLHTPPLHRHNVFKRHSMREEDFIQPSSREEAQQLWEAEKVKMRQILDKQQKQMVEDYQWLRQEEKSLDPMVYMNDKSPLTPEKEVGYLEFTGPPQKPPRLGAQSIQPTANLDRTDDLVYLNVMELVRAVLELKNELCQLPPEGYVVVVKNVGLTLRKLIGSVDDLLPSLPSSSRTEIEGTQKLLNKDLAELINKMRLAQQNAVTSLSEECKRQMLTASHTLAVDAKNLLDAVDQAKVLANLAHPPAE
# Description: as §1
# as §2, with “Pyk2” for “PAK4”, “0.1” for “0.8”, “poly(Glu, Tyr) 4:1,” for “myelin basic protein,”, “Filtermat A” for “P30 filtermat”
# Sequence of PAK4(h) (O96013 whole entry): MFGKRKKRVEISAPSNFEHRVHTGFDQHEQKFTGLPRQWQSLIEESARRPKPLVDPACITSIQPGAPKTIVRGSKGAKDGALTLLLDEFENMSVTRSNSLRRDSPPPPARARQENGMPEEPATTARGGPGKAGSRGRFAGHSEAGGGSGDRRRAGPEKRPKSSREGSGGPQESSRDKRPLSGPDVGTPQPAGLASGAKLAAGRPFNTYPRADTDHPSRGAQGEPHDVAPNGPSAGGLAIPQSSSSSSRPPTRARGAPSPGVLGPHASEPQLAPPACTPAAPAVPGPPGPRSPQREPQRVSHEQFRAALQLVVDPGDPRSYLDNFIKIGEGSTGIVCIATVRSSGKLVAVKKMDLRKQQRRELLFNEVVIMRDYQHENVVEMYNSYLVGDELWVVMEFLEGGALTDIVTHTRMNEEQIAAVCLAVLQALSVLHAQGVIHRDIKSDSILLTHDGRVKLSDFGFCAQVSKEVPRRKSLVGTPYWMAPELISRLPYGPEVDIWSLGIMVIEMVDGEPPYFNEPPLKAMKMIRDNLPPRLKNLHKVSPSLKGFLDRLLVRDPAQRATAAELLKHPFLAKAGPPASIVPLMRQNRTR
structure (smiles),measurement,setting,value
CN1CCCC1CCNC(=O)c1cn2c3c(c(N4CCC(c5cnccn5)C4)c(F)cc3c1=O)Oc1cc3ccccc3cc1-2 (stereo not drawn) [Compound A-1],remaining activity at 2.5 µM,[1],99%
same,remaining activity at 2.5 µM,[2],110%
same,remaining activity at 2.5 µM,[3],111%
same,remaining activity at 2.5 µM,[4],105%
same,remaining activity at 2.5 µM,[5],25%
same,remaining activity at 2.5 µM,[6],95%
CC(=O)N1CCN(c2ccc3c(=O)c(C(=O)NCCN4CCCC4)c4n(C)c5ccccc5n4c3n2)CC1 [Compound B-1],remaining activity at 2.5 µM,[1],96%
same,remaining activity at 2.5 µM,[2],102%
same,remaining activity at 2.5 µM,[3],114%
same,remaining activity at 2.5 µM,[4],116%
same,remaining activity at 2.5 µM,[5],80%
same,remaining activity at 2.5 µM,[6],105%
